Test results from patent publication US20230416262A1, “TRPML MODULATORS” (Casma Therapeutics, Inc., priority 2020, published 2023).

Tested on: THP-1 cells
Assay: Lamp1 lysosomal exocytosis assay
Assay type: cell-based
Conditions: Homo sapiens, 55 min, 55 min incubation, top dose 20 μM
Method: For the Lamp1 lysosomal exocytosis assay, a human monocytic suspension cell line (THP-1) was used. Cells in culture should be used between a density of […] and 1.2e6/mL on the day of the assay. For each 96-well assay plate to be used, pellet 11e6 THP-1 cells at 330×g for 5 min in a 50 mL conical tube, aspirate media and resuspend in 22 mLs of RPMI 1640/10% FBS media for a final cell concentration of 5e5/mL. Prior to addition of cells to the assay plate, perform a 7 pt dilution curve using a top dose of compound at 2 mM and use a 3-fold serial dilution, the 8th point is DMSO only. Final top dose of compound in the assay was 20 μM. 2 μL of each serial dilution was transferred to a new 96-well v-bottom assay plate. 198 μL of cells (1e5 total cells/well) was prepared as above in each well of the assay plate and incubated at 37° C./5% CO2/95% RH for 55 min. After the 55 min incubation, cells were pelleted for 5 min at 4 C at 400×g in a tabletop centrifuge. The media was separated from the cell pellets in the plate. The pellets were washed using 200 μL ice cold buffer (PBS Ca^++/Mg^++ containing 2% final BSA and 80 μM final Dynasore). Cells were pelleted again at 400×g-5 min in a 4° C. tabletop centrifuge. Buffer was separated from cells. Each well was suspended in 75 uL Lamp1-PE antibody buffer (PBS Ca^++/Mg^++ containing 2% final BSA with 80 uM final Dynasore and 1:800 final dilution of Lamp 1-PE labeled antibody). After a 45 min antibody incubation on ice, 25 μL of sytox green was added (I drop/mL buffer), and each well was mixed and incubated for an additional 15 min on ice. After the 15 min sytox green incubation, 100 μL of ice-cold buffer (PBS Ca^++/Mg^++ containing 2% final BSA and 80 uM final Dynasore) was added and cells were pelleted for 5 min at 400×g. The buffer was removed and each sample was resuspended in 100 uL of ice-cold buffer (PBS Ca^++/Mg^++ containing 2% final BSA and 80 μM final Dynasore). FACs gating strategy: FACS analyze for sytox green (A488) and Lamp1-PE (DsRed). First gate against FSC-A/SSC-A to find non-fragmented or ‘live’ THP-1 cells. Next gate against FITC-A/FSC-A to omit sytox green positive cells. Then gate for FSC-A/FSC-H to remove any doublet cells. The last gate was a histogram for PE. The statistics for ‘count’ and ‘geometric mean fluorescence intensity’ (gWFI) for PE were repoted on the last gate.
Compounds having an activity designated as “++++” provided an exocytosis readout of ≤0.50 μM; compounds having an activity designated as “+++” provided an exocytosis readout of 0.51-1.00 μM; compounds having an activity designated as “++” provided an exocytosis readout of 1.01-5.00 μM; and compounds having an activity designated as “+” provided an exocytosis readout of ≥5.01 μM

SMILES | EC50 [µM]
O=C(OCc1ccccc1)N1CCC2(CC1)CN(S(=O)(=O)c1ccc(C(F)F)cc1)c1cnccc12 [Compound I-135, benzyl 1′-[4-(difluoromethyl)benzenesulfonyl]-1′,2′-dihydrospiro[piperidine-4,3′-pyrrolo[2,3-c]pyridine]-1-carboxylate] | ≤ 0.5
O=C(N1CCCC1)N1CCC2(CC1)CN(S(=O)(=O)c1ccc(C(F)F)cc1)c1ccccc12 [Compound I-136, (1-((4-(difluoromethyl)phenyl)sulfonyl)spiro[indoline-3,4′-piperidin]-1′-yl)(pyrrolidin-1-yl)methanone] | ≥ 5.01
O=S(=O)(c1ccc(C(F)F)cc1)N1CC2(CCC(F)(F)CC2)c2ccccc21 [Compound I-138, 1′-[4-(difluoromethyl)benzenesulfonyl]-4,4-difluoro-1′,2′-dihydrospiro[cyclohexane-1,3′-indole]] | ≥ 5.01
O=C(OCc1ccccn1)N1CCC2(CC1)CN(S(=O)(=O)c1ccc(C(F)F)cc1)c1ccccc12 [Compound I-141, pyridin-2-ylmethyl 1-((4-(difluoromethyl)phenyl)sulfonyl)spiro[indoline-3,4′-piperidine]-1′-carboxylate] | 1.01 to 5
O=C(NC1CC1)N1CCC2(CC1)CN(S(=O)(=O)c1ccc(C(F)F)cc1)c1ccccc12 [Compound I-142, N-cyclopropyl-1-[4-(difluoromethyl)benzenesulfonyl]-1,2-dihydrospiro[indole-3,4′-piperidine]-1′-carboxamide] | ≥ 5.01
O=C(NCc1ccccc1)C1CCC2(CC1)CN(S(=O)(=O)c1ccc(C(F)F)cc1)c1ccccc12 (stereo not shown) [Compound I-143, N-benzyl-1′-((4-(difluoromethyl)phenyl)sulfonyl)spiro[cyclohexane-1,3′-indoline]-4-carboxamide] | ≥ 5.01
O=S1(=O)CCC2(CC1)CN(S(=O)(=O)c1ccc(C(F)F)cc1)c1ccccc12 [Compound I-152, 1-((4-(difluoromethyl)phenyl)sulfonyl)-2′,3′,5′,6′-tetrahydrospiro[indoline-3,4′-thiopyran] 1′,1′-dioxide] | ≥ 5.01
CN(C)S(=O)(=O)c1ccc(S(=O)(=O)N2CC3(CCN(Cc4ccccc4)CC3)c3c(F)cccc32)cc1 [Compound I-155, 4-((1′-benzyl-4-fluorospiro[indoline-3,4′-piperidin]-1-yl)sulfonyl)-N,N-dimethylbenzenesulfonamide] | ≤ 0.5
O=C(OCc1ccncc1)N1CCC2(CC1)CN(S(=O)(=O)c1ccc(C(F)F)cc1)c1ccccc12 [Compound I-159, pyridin-4-ylmethyl 1-((4-(difluoromethyl)phenyl)sulfonyl)spiro[indoline-3,4′-piperidine]-1′-carboxylate] | ≥ 5.01
CCn1cc(COC(=O)N2CCC3(CC2)CN(S(=O)(=O)c2ccc(C(F)F)cc2)c2ccccc23)cn1 [Compound I-171] | 0.51 to 1
Cn1cnc(COC(=O)N2CCC3(CC2)CN(S(=O)(=O)c2ccc(C(F)F)cc2)c2ccccc23)c1 [Compound I-172, (1-methyl-1H-imidazol-4-yl)methyl 1-((4-(difluoromethyl)phenyl)sulfonyl)spiro[indoline-3,4′-piperidine]-1′-carboxylate] | ≥ 5.01
O=C(OCc1cnoc1)N1CCC2(CC1)CN(S(=O)(=O)c1ccc(C(F)F)cc1)c1ccccc12 [Compound I-173, isoxazol-4-ylmethyl 1-((4-(difluoromethyl)phenyl)sulfonyl)spiro[indoline-3,4′-piperidine]-1′-carboxylate] | 1.01 to 5
O=C(Cc1ccccc1)N1CCC2(CC1)CN(S(=O)(=O)c1ccc(C(F)F)cc1)c1ccccc12 [Compound I-175, 1-(1-((4-(difluoromethyl)phenyl)sulfonyl)spiro[indoline-3,4′-piperidin]-1′-yl)-2-phenylethan-1-one] | ≥ 5.01
Cn1cc(COC(=O)N2CCC3(CC2)CN(S(=O)(=O)c2ccc(C(F)F)cc2)c2ccccc23)cn1 [Compound I-176] | 1.01 to 5
CCn1ccc(COC(=O)N2CCC3(CC2)CN(S(=O)(=O)c2ccc(C(F)F)cc2)c2ccccc23)n1 [Compound I-177, (1-ethyl-1H-pyrazol-3-yl)methyl 1-((4-(difluoromethyl)phenyl)sulfonyl)spiro[indoline-3,4′-piperidine]-1′-carboxylate] | 0.51 to 1
O=C(NCc1ccccc1)N1CCC2(CC1)CN(S(=O)(=O)c1ccc(C(F)F)cc1)c1ccccc12 [Compound I-179, N-benzyl-1-((4-(difluoromethyl)phenyl)sulfonyl)spiro[indoline-3,4′-piperidine]-1′-carboxamide] | ≥ 5.01
O=C(OCc1ccccc1)N1CCC2(CC1)CN(S(=O)(=O)c1ccc3c(c1)COC3)c1ccccc12 [Compound I-183, benzyl 1-((1,3-dihydroisobenzofuran-5-yl)sulfonyl)spiro[indoline-3,4′-piperidine]-1′-carboxylate] | ≤ 0.5
O=C(OCc1ccccc1)N1CCC2(CC1)CN(C(=O)c1ccc(C(F)F)cc1)c1ccccc12 [Compound I-185, benzyl 1-(4-(difluoromethyl)benzoyl)spiro[indoline-3,4′-piperidine]-1′-carboxylate] | ≥ 5.01
CC(C)NC(=O)N1CCC2(CC1)CN(S(=O)(=O)c1ccc(C(F)F)cc1)c1ccccc12 [Compound I-192, 1-((4-(difluoromethyl)phenyl)sulfonyl)-N-isopropylspiro[indoline-3,4′-piperidine]-1′-carboxamide] | ≥ 5.01
O=C(NCC1CC1)N1CCC2(CC1)CN(S(=O)(=O)c1ccc(C(F)F)cc1)c1ccccc12 [Compound I-193, N-(cyclopropylmethyl)-1-((4-(difluoromethyl)phenyl)sulfonyl)spiro[indoline-3,4′-piperidine]-1′-carboxamide] | ≥ 5.01
O=C(NCC(F)F)N1CCC2(CC1)CN(S(=O)(=O)c1ccc(C(F)F)cc1)c1ccccc12 [Compound I-194, N-(2,2-difluoroethyl)-1-((4-(difluoromethyl)phenyl)sulfonyl)spiro[indoline-3,4′-piperidine]-1′-carboxamide] | ≥ 5.01
O=C(NC1CCOC1)N1CCC2(CC1)CN(S(=O)(=O)c1ccc(C(F)F)cc1)c1ccccc12 (stereo not shown) [Compound I-195, 1-((4-(difluoromethyl)phenyl)sulfonyl)-N-(tetrahydrofuran-3-yl)spiro[indoline-3,4′-piperidine]-1′-carboxamide] | ≥ 5.01
CCOCCNC(=O)N1CCC2(CC1)CN(S(=O)(=O)c1ccc(C(F)F)cc1)c1ccccc12 [Compound I-196, 1-((4-(difluoromethyl)phenyl)sulfonyl)-N-(2-ethoxyethyl)spiro[indoline-3,4′-piperidine]-1′-carboxamide] | ≥ 5.01
O=C(Nc1ccccc1)N1CCC2(CC1)CN(S(=O)(=O)c1ccc(C(F)F)cc1)c1ccccc12 [Compound I-197, 1-((4-(difluoromethyl)phenyl)sulfonyl)-N-phenylspiro[indoline-3,4′-piperidine]-1′-carboxamide] | ≥ 5.01
O=C(Nc1cccnc1)N1CCC2(CC1)CN(S(=O)(=O)c1ccc(C(F)F)cc1)c1ccccc12 [Compound I-198, 1-((4-(difluoromethyl)phenyl)sulfonyl)-N-(pyridin-3-yl)spiro[indoline-3,4′-piperidine]-1′-carboxamide] | ≥ 5.01
Cn1cccc1NC(=O)N1CCC2(CC1)CN(S(=O)(=O)c1ccc(C(F)F)cc1)c1ccccc12 [Compound I-199, 1-((4-(difluoromethyl)phenyl)sulfonyl)-N-(1-methyl-1H-pyrrol-2-yl)spiro[indoline-3,4′-piperidine]-1′-carboxamide] | ≥ 5.01
Cn1cc(NC(=O)N2CCC3(CC2)CN(S(=O)(=O)c2ccc(C(F)F)cc2)c2ccccc23)cn1 [Compound I-200, 1-((4-(difluoromethyl)phenyl)sulfonyl)-N-(1-methyl-1H-pyrazol-4-yl)spiro[indoline-3,4′-piperidine]-1′-carboxamide] | ≥ 5.01
O=C(NCC(F)(F)F)N1CCC2(CC1)CN(S(=O)(=O)c1ccc(C(F)F)cc1)c1ccccc12 [Compound I-201, 1-((4-(difluoromethyl)phenyl)sulfonyl)-N-(2,2,2-trifluoroethyl)spiro[indoline-3,4′-piperidine]-1′-carboxamide] | ≥ 5.01
